Data taken from patent US8124365B2, “Identification of genotype-selective anti-tumor agents” (Whitehead Institute for Biomedical Research, priority 2003, dated 2012).

How the values were obtained:
Assay type in all cases: cell-based, human
[1] = test system: BJ-TERT/LT/ST/RAS^V12 cells; assay: Calcein AM viability assay, dilution series, BJ-TERT/LT/ST/RAS^V12 tumorigenic cells
Protocol: Described here is work carried out to identify compounds with increased potency or activity in the presence of hTERT, LT, ST, E6, E7 or RAS^V12. […] The primary screen tested (in quadruplicate) the effect of treating tumorigenic […], corresponding to 10 μM for a compound with a molecular weight of 400, which is the approximate median molecular weight of the libraries. […] In live cells, calcein AM is cleaved by intracellular esterases, forming the anionic fluorescent derivative calcein, which cannot diffuse out of live cells. […] The IC50 value (concentration required to inhibit 50% of the calcein AM signal) was calculated for each compound in each cell line (Table 1).
Calcein acetoxylmethyl ester (AM) is a cell membrane-permeable, non-fluorescent compound that is cleaved by intracellular esterases to form the anionic, cell-impermeable, fluorescent compound calcein. Viable cells are stained by calcein because of the presence of intracellular esterases and because the intact plasma membrane prevents fluorescent calcein from leaking out of cells (Wang et al., 1993, supra). Cells were seeded in 384-well plates using a Zymark Sciclone ALH, treated with each […], washed with phosphate-buffered saline on a Packard Minitrak with a 384-well washer and incubated for four hours with 0.7 μg/mL calcein (Molecular Probes). Total fluorescence intensity in each well was recorded on a Packard Fusion platereader, and converted to a percent inhibition of signal by subtracting the instrument background and dividing by the average signal obtained when cells were not treated with any compound.
Compounds to be retested were purchased from manufacturers. Stocks were prepared in DMSO at a concentration of 1 mg/ml in 384-well polypropylene plates with a 16-point, two-fold dilution dose curve of each compound in a column, in duplicates. Column 1-2 and 23-24 were left empty for controls. Daughter retest plates were prepared from stock retest plate by diluting 66.6 fold in DMEM in 384-well deep-deep well plates (4.5 μl transfer into 300 μl). Cells were seeded at a density of 6000 per well in 40 μl, and 20 μl was added from a daughter retest plate. […]
The IC50 in primary BJ cells was divided by the IC50 in BJ-TERT/LT/ST/RAS^V12 tumorigenic cells to obtain a tumor selectivity ratio for each compound. The compound selectivity for each genetic element was determined by calculating the selectivity ratio for each subsequent pair of cell lines in a series.

BJ cells = assay: Calcein AM viability assay, dilution series, BJ primary cells; details: two days
Source text: Described here is work carried out to identify compounds with increased potency or activity in the presence of hTERT, LT, ST, E6, E7 or RAS^V12. Engineered cell lines with these genetic elements were used to screen 23,550 compounds, including 20,000 compounds from a combinatorial library, 1,990 compounds from the National Cancer Institute diversity collection, and 1,540 biologically active known compounds that were selected and purchased by Applicant and formatted into a screenable collection. […] Cell viability was measured using the dye calcein acetoxymethyl ester (calcein AM) (Wang et al., 1993, Hum. Immunol. 37, 264-270), which is a non-fluorescent compound that freely diffuses into cells. […]
Calcein acetoxylmethyl ester (AM) is a cell membrane-permeable, non-fluorescent compound that is cleaved by intracellular esterases to form the anionic, cell-impermeable, fluorescent compound calcein. […] Total fluorescence intensity in each well was recorded on a Packard Fusion platereader, and converted to a percent inhibition of signal by subtracting the instrument background and dividing by the average signal obtained when cells were not treated with any compound. […]
Mean RFU (relative fluorescence units) for untreated cells was calculated by averaging columns 1, 2, and 23 (wells with cells but lacking compounds). […]

[2] = test system: BJ-TERT/LT/ST/RAS^V12 cells; assay: DNA fragmentation (DNA ladder formation)
caspase 3 = assay: Western blot for active, cleaved caspase 3; details: lysates of treated BJ-TERT/LT/ST/RAS^V12 cells
Protocol: BJ-TERT/LT/ST/RAS^V12 cells were seeded prior to the experiment at 5×10^5 cells in 60 mm dishes. The cells were treated with 5 μg/ml erastin (9 μM) for 2, 4, 6, 8 or 10 hours. One dish was maintained for camptothecin treatment (0.4 μg/ml for 24 h) as a positive control. Cells were lysed after each time point in lysis buffer (50 mM HEPES KOH pH 7.4, […], 2 mM EDTA, 0.5% Triton X-100, 1.5 mM Na3VO4, 50 mM NaF, 10 mM sodium pyrophosphate, 10 mM sodium beta-glycerophosphate and protease inhibitor tablet (Roche)). Protein content was quantified using a Biorad protein assay reagent. Equal amounts of protein were resolved on 16% SDS-polyacrylamide gel. The electrophoresed proteins were transblotted onto a PVDF membrane, blocked with 5% milk and incubated with anti-active caspase-3 polyclonal antibody (BD Pharmingen) at 1:1500 dilution overnight at 4° C. The membrane was then incubated in anti-rabbit-HRP (Santa Cruz Biotechnology) at 1:3000 dilution for 1 hour and developed with an enhanced chemiluminescence mixture (NEN life science, Renaissance). To test for equivalent loading in each lane, blots were stripped, blocked, and probed with an anti-eIF-4E antibody (BD Transduction laboratories) at 1:1000 dilution.

[3] = test system: BJ-TERT/LT/ST/RAS^V12 cells; assay: Nuclear morphology assay; details: fluorescence microscopy, 9 μM erastin or 1.1 μM camptothecin, 18 hours
Protocol: 200,000 tumorigenic BJ-TERT/LT/ST/RAS^V12 cells were seeded in 2 mL on glass coverslips in each well of a six-well dish, treated with nothing (NT), 9 μM erastin or 1.1 μM camptothecin (CPT) in growth medium for 18 hours while incubating at 37° C. with 5% CO2. Nuclei were stained with 25 μg/mL Hoechst 33342 (Molecular Probes) and viewed using an oil immersion 100× objective on a fluorescence microscope.

Row | Compound | IC50, 50% inhibition of calcein AM staining, BJ-TERT/LT/ST/Ras^v12 ([1]; BJ-TERT/LT/ST/Ras^v12 cells, two days) [µg/mL] | Tumor Selectivity ([1]; IC50 in primary BJ cells divided by IC50 in BJ-TERT/LT/ST/RAS^V12 tumorigenic cells) | IC50, concentration required to achieve 50% inhibition of calcein AM staining, BJ (BJ cells) [µg/mL] | DNA fragmentation (formation of a DNA ladder) [2] | activated (cleaved) caspase 3 (caspase 3) | time required to cause death ([1]; BJ-TERT/LT/ST/RAS^V12 cells) | nuclear morphology (karyorhexis, margination of chromatin) [3]
1 | Cc1c2ccccc2c(CSC(=N)N)c2ccccc12.Cl [NSC146109] | 2.5 | >4 | >5 | – | – | – | –
2 | CC[C@@]1(O)C(=O)OCc2c1cc1n(c2=O)Cc2cc3ccccc3nc2-1 [Camptothecin, camptothecin] | – | – | – | induces DNA fragmentation | harbor activated caspase 3 | two days | karyorhexis and margination of chromatin were clearly visible
